Experiments:
Format in all cases: functional
A549 = test: Cytotoxicity against human A549/ATCC cells assessed as cell growth at 100 uM after 48 hrs by sulforhodamine B assay relative to control; conditions: A549, 48 h, read-out: Activity
MOLT-4 [1] = test: Cytotoxicity against human MOLT4 cells assessed as growth inhibition after 48 hrs by sulforhodamine B assay; conditions: MOLT-4, 48 h; for CC50: read-out: LC50 (the source's name)
SK-MEL-5 = test: Cytotoxicity against human SK-MEL-5 cells assessed as cell growth at 100 uM after 48 hrs by sulforhodamine B assay relative to control; conditions: SK-MEL-5, 48 h, read-out: Activity
HT-29 = test: Cytotoxicity against human HT-29 cells assessed as cell growth at 1 uM after 48 hrs by sulforhodamine B assay relative to control; conditions: HT-29, 48 h, read-out: Activity
BT-549 [2] = test: Cytotoxicity against human BT549 cells assessed as cell growth at 0.1 uM after 48 hrs by sulforhodamine B assay relative to control; conditions: BT-549, 48 h, read-out: Activity
A498 = test: Cytotoxicity against human A498 cells assessed as cell growth at 10 uM after 48 hrs by sulforhodamine B assay relative to control; conditions: A498, 48 h, read-out: Activity
BT-549 [3] = test: Cytotoxicity against human BT549 cells assessed as cell growth at 10 uM after 48 hrs by sulforhodamine B assay relative to control; conditions: BT-549, 48 h, read-out: Activity
MDA-MB-435 = test: Cytotoxicity against human MDA-MB-435 cells assessed as cell growth at 0.1 uM after 48 hrs by sulforhodamine B assay relative to control; conditions: MDA-MB-435, 48 h, read-out: Activity
HL-60(TB) [4] = test: Cytotoxicity against human HL-60(TB) cells assessed as cell growth at 0.1 uM after 48 hrs by sulforhodamine B assay relative to control; conditions: HL-60, 48 h, read-out: Activity
HL-60(TB) [5] = test: Cytotoxicity against human HL-60(TB) cells assessed as cell growth at 0.01 uM after 48 hrs by sulforhodamine B assay relative to control; conditions: HL-60, 48 h, read-out: Activity
MOLT-4 [6] = test: Cytotoxicity against human MOLT4 cells assessed as cell growth at 100 uM after 48 hrs by sulforhodamine B assay relative to control; conditions: MOLT-4, 48 h, read-out: Activity
SR [7] = test: Cytotoxicity against human SR cells assessed as cell growth at 0.1 uM after 48 hrs by sulforhodamine B assay relative to control; conditions: read-out: Activity
U-251 [8] = test: Cytotoxicity against human U251 cells assessed as cell growth at 1 uM after 48 hrs by sulforhodamine B assay relative to control; conditions: U-251, 48 h, read-out: Activity
HCT-116 = test: Cytotoxicity against human HCT116 cells assessed as cell growth at 100 uM after 48 hrs by sulforhodamine B assay relative to control; conditions: HCT-116, 48 h, read-out: Activity
NCI-H460 = test: Cytotoxicity against human NCI-H460 cells assessed as growth inhibition after 48 hrs by sulforhodamine B assay; conditions: NCI-H460, 48 h
BT-549 [9] = test: Cytotoxicity against human BT549 cells assessed as cell growth at 100 uM after 48 hrs by sulforhodamine B assay relative to control; conditions: BT-549, 48 h, read-out: Activity
UACC-257 [10] = test: Cytotoxicity against human UACC257 cells assessed as cell growth at 10 uM after 48 hrs by sulforhodamine B assay relative to control; conditions: UACC-257, 48 h, read-out: Activity
NCI-H322M = test: Cytotoxicity against human NCI-H322M cells assessed as cell growth at 1 uM after 48 hrs by sulforhodamine B assay relative to control; conditions: read-out: Activity
Malme-3M [11] = test: Cytotoxicity against human MALME-3M cells assessed as growth inhibition after 48 hrs by sulforhodamine B assay
HCT-15 [12] = test: Cytotoxicity against human HCT15 cells assessed as cell growth at 0.01 uM after 48 hrs by sulforhodamine B assay relative to control; conditions: HCT-15, 48 h, read-out: Activity
RPMI-8226 = test: Cytotoxicity against human RPMI8226 cells assessed as growth inhibition after 48 hrs by sulforhodamine B assay; conditions: RPMI-8226, 48 h
U-251 [13] = test: Cytotoxicity against human U251 cells assessed as cell growth at 10 uM after 48 hrs by sulforhodamine B assay relative to control; conditions: U-251, 48 h, read-out: Activity
SK-OV-3 [14] = test: Cytotoxicity against human SKOV3 cells assessed as cell growth at 0.1 uM after 48 hrs by sulforhodamine B assay relative to control; conditions: SK-OV-3, 48 h, read-out: Activity
NCI-H226 = test: Cytotoxicity against human NCI-H226 cells assessed as cell growth at 0.01 uM after 48 hrs by sulforhodamine B assay relative to control; conditions: NCI-H226, 48 h, read-out: Activity
OVCAR-8 = test: Cytotoxicity against human OVCAR8 cells assessed as growth inhibition after 48 hrs by sulforhodamine B assay; conditions: OVCAR-8, 48 h
Malme-3M [15] = test: Cytotoxicity against human MALME-3M cells assessed as cell growth at 0.1 uM after 48 hrs by sulforhodamine B assay relative to control; conditions: read-out: Activity
UACC-257 [16] = test: Cytotoxicity against human UACC257 cells assessed as cell growth at 0.01 uM after 48 hrs by sulforhodamine B assay relative to control; conditions: UACC-257, 48 h, read-out: Activity
UO-31 = test: Cytotoxicity against human UO31 cells assessed as cell growth at 0.01 uM after 48 hrs by sulforhodamine B assay relative to control; conditions: UO-31, 48 h, read-out: Activity
RXF 393 = test: Cytotoxicity against human RXF393 cells assessed as growth inhibition after 48 hrs by sulforhodamine B assay; conditions: RXF 393, 48 h
SR [17] = test: Cytotoxicity against human SR cells assessed as growth inhibition after 48 hrs by sulforhodamine B assay; conditions: for CC50: read-out: LC50 (the source's name)
HCT-15 [18] = test: Cytotoxicity against human HCT15 cells assessed as growth inhibition after 48 hrs by sulforhodamine B assay; conditions: HCT-15, 48 h
CCRF-CEM = test: Cytotoxicity against human CCRF-CEM cells assessed as cell growth at 1 uM after 48 hrs by sulforhodamine B assay relative to control; conditions: read-out: Activity
SK-OV-3 [19] = test: Cytotoxicity against human SKOV3 cells assessed as cell growth at 100 uM after 48 hrs by sulforhodamine B assay relative to control; conditions: SK-OV-3, 48 h, read-out: Activity
ACHN = test: Cytotoxicity against human ACHN cells assessed as cell growth at 10 uM after 48 hrs by sulforhodamine B assay relative to control; conditions: read-out: Activity
MDA-MB-468 = test: Cytotoxicity against human MDA-MB-468 cells assessed as cell growth at 1 uM after 48 hrs by sulforhodamine B assay relative to control; conditions: MDA-MB-468, 48 h, read-out: Activity
SF-539 = test: Cytotoxicity against human SF539 cells assessed as cell growth at 0.1 uM after 48 hrs by sulforhodamine B assay relative to control; conditions: SF-539, 48 h, read-out: Activity

## COc1ccc(C(=O)/C=C/c2cc(-c3ccc4c(c3)OCO4)n[nH]2)cc1OC
A549
  growth at 100 µM: -14%
MOLT-4 [1]
  TGI: 10.3 µM
  CC50: > 100 µM
SK-MEL-5
  growth at 100 µM: -95%
HT-29
  growth at 1 µM: 93%
BT-549 [2]
  growth at 0.1 µM: 99%
A498
  growth at 10 µM: -43%
BT-549 [3]
  growth at 10 µM: -57%
MDA-MB-435
  growth at 0.1 µM: 99%
HL-60(TB) [4]
  growth at 0.1 µM: 96%
HL-60(TB) [5]
  growth at 0.01 µM: 97%
MOLT-4 [6]
  growth at 100 µM: -20%
SR [7]
  growth at 0.1 µM: 88%
U-251 [8]
  growth at 1 µM: 69%
HCT-116
  growth at 100 µM: -64%
NCI-H460
  LC50: 9.07 µM
  TGI: 4.05 µM
BT-549 [9]
  growth at 100 µM: -90%
UACC-257 [10]
  growth at 10 µM: 42%
NCI-H322M
  growth at 1 µM: 92%
Malme-3M [11]
  LC50: 61.8 µM
  TGI: 22.8 µM
HCT-15 [12]
  growth at 0.01 µM: 92%
RPMI-8226
  LC50: > 100 µM
  TGI: 5.24 µM
U-251 [13]
  growth at 10 µM: -25%
SK-OV-3 [14]
  growth at 0.1 µM: 99%
NCI-H226
  growth at 0.01 µM: 90%
OVCAR-8
  LC50: 40.2 µM
  TGI: 5.82 µM
Malme-3M [15]
  growth at 0.1 µM: 100%
UACC-257 [16]
  growth at 0.01 µM: 91%
UO-31
  growth at 0.01 µM: 86%
RXF 393
  LC50 (concentration killing 50% of cells): 15.9 µM
  TGI: 5.39 µM
SR [17]
  TGI: 6.48 µM
  CC50: > 100 µM
HCT-15 [18]
  LC50: > 100 µM
  TGI: > 100 µM
CCRF-CEM
  growth at 1 µM: 85%
SK-OV-3 [19]
  growth at 100 µM: -23%
ACHN
  growth at 10 µM: 13%
MDA-MB-468
  growth at 1 µM: 85%
SF-539
  growth at 0.1 µM: 95%

## COc1ccc(-c2cc(/C=C/C(=O)c3ccc(N)cc3)[nH]n2)cc1OC
A549
  growth at 100 µM: -76%
MOLT-4 [1]
  GI50: 3.11 µM
  TGI: 16.5 µM
  CC50: > 100 µM
SK-MEL-5
  growth at 100 µM: -94%
HT-29
  growth at 1 µM: 99%
BT-549 [2]
  growth at 0.1 µM: 92%
A498
  growth at 10 µM: -16%
BT-549 [3]
  growth at 10 µM: -91%
MDA-MB-435
  growth at 0.1 µM: 98%
HL-60(TB) [4]
  growth at 0.1 µM: 104%
HL-60(TB) [5]
  growth at 0.01 µM: 104%
MOLT-4 [6]
  growth at 100 µM: -22%
SR [7]
  growth at 0.1 µM: 104%
U-251 [8]
  growth at 1 µM: 88%
HCT-116
  growth at 100 µM: -89%
NCI-H460
  GI50: 2.03 µM
  LC50: 10.6 µM
  TGI: 4.53 µM
BT-549 [9]
  growth at 100 µM: -98%
UACC-257 [10]
  growth at 10 µM: 39%
NCI-H322M
  growth at 1 µM: 95%
Malme-3M [11]
  GI50: 6.72 µM
  LC50: 59.2 µM
  TGI: 21.2 µM
HCT-15 [12]
  growth at 0.01 µM: 93%
RPMI-8226
  GI50: 1.28 µM
  LC50: > 100 µM
  TGI: 5.52 µM
U-251 [13]
  growth at 10 µM: -68%
SK-OV-3 [14]
  growth at 0.1 µM: 102%
NCI-H226
  growth at 0.01 µM: 93%
OVCAR-8
  GI50: 2.95 µM
  LC50: 39 µM
  TGI: 10.5 µM
Malme-3M [15]
  growth at 0.1 µM: 108%
UACC-257 [16]
  growth at 0.01 µM: 90%
UO-31
  growth at 0.01 µM: 92%
RXF 393
  GI50: 2.15 µM
  LC50 (concentration killing 50% of cells): 15.9 µM
  TGI: 5.12 µM
SR [17]
  GI50: 0.58 µM
  TGI: 5.31 µM
  CC50: > 100 µM
HCT-15 [18]
  GI50: 1.7 µM
  LC50: 33 µM
  TGI: 5.37 µM
CCRF-CEM
  growth at 1 µM: 68%
SK-OV-3 [19]
  growth at 100 µM: -99%
ACHN
  growth at 10 µM: -82%
MDA-MB-468
  growth at 1 µM: 77%
SF-539
  growth at 0.1 µM: 97%
